What all share (assay type): in vivo, rat
Test [1] concerns interleukin (IL)-1β in the gingival tissue. Nature of the test: IL-1β content in gingival tissue of EPD rats, 14 natural substance extracts. Conditions: extract 200 mg/kg (IND 5 mg/kg) oral once a day for 10 days, FIG. 1. The method, then:
The gingivitis- and periodontitis-improving effect was evaluated using rats with ligature-induced experimental periodontitis (EPD). 24 hours after the ligature of the cervical portion, each extract dissolved in sterilized distilled water was orally administered at a dosage of 5 mL/kg (200 mg/kg) once a day for 10 days and the change in the amount of interleukin (IL)-1β in the gingival tissue and the alveolar bone volume was observed along with histopathological changes. A group to which 5 mg/kg indomethacin (IND), which is a nonsteroidal anti-inflammatory drug (NSAID), was orally administered was used as a control group. […]
After EPD for 11 days, the gingival tissue was homogenized and subjected to measurement with the IL-1β rat ELISA kit (Abcam, Cambridge, UK). […] After adding 50 μL of a stop solution to each well, absorbance was measured with a microplate reader (Tecan, Mannedofr, Switzerland) at a wavelength of 450 nm.

Test [2] concerns rats with ligature-induced experimental periodontitis (EPD). Nature of the test: Alveolar bone volume in EPD rats, 14 natural substance extracts. Conditions: extract 200 mg/kg (IND 5 mg/kg) oral once a day for 10 days, FIG. 2. The protocol: The gingivitis- and periodontitis-improving effect was evaluated using rats with ligature-induced experimental periodontitis (EPD). 24 hours after the ligature of the cervical portion, each extract dissolved in sterilized distilled water was orally administered at a dosage of 5 mL/kg (200 mg/kg) once a day for 10 days and the change in the amount of interleukin (IL)-1β in the gingival tissue and the alveolar bone volume was observed along with histopathological changes. A group to which 5 mg/kg indomethacin (IND), which is a nonsteroidal anti-inflammatory drug (NSAID), was orally administered was used as a control group.
Each of the concentrated pomegranate powder and the 13 extracts containing moringa leaf (balloon flower root, gardeniae fructus, scutellariae radix, moringa, lotus leaf, Chinese mulberry leaf, ginger, peony root, achyranthis radix, eucommia bark, red clover, dandelion and dandelion root) was dissolved in sterilized distilled water to a concentration of 40 mg/mL and orally administered at a dosage of 5 mL/kg (200 mg/kg) from 24 hours after the ligature of the cervical portion once a day for 10 days. […]
Alveolar bone loss was measured according to the method of Crawford et al. [1987]. […] The area between the end of the gingiva and the end of the incisor between the two teeth subjected to EPD was expressed as mm/rat.

For test [3], the system named is osteoclasts in alveolar bone. The test can be described thus: Number of osteoclasts in alveolar bone of EPD rats (TRAP staining). The note with it: dosage of 200 mg/kg oral once a day for 10 days, FIG. 7. The protocol: The gingivitis- and periodontitis-improving effect was evaluated using rats with ligature-induced experimental periodontitis (EPD). 9 complex compositions of the moringa leaf extract (MF) and the eucommia bark extract (EC) (MF:EC=1:1, 1:2, 1:4, 1:6, 1:8, 2:1, 4:1, 6:1 and 8:1; mg:mg) dissolved in sterilized distilled water were orally administered at a dosage of 5 mL/kg (200 mg/kg) once a day for 10 days and body weight, alveolar bone, number of viable aerobic bacteria in the oral tissue, interleukin (IL)-1β and tumor necrosis factor (TNF)-α contents in the gingiva, lipid peroxidation (malondialdehyde (MDA) content) and change in the activity of inducible nitric oxide synthase (iNOS) and myeloperoxidase (MPO) were observed together with histopathological changes. […] A group to which 5 mg/kg indomethacin (IND), which is a nonsteroidal anti-inflammatory drug (NSAID), was orally administered was used as a control group. […]
The number of osteoclasts was determined by staining with TRAP and counting the number of TRAP-positive multinucleated cells. […] The number of TRAP-positive multinucleated osteoclasts (having 3 or more nuclei) formed on the surface of the alveolar bone was counted using an optical microscope.

Take `COc1ccc2c(c1)c(CC(=O)O)c(C)n2C(=O)c1ccc(Cl)cc1` [IND, indomethacin]: the “change in IL-1β content in the gingival tissue as compared to the EPD control group” value in test [1] is listed as “significantly decrease (p<0.01)”. Besides, in test [2], the “change in alveolar bone volume as compared to the EPD control group” value is on record as “significantly increase (p<0.01 or p<0.05)”. Besides, the “change in the number of osteoclasts as compared to the EPD control group” value in test [3] is given as −50.19%.

The values are drawn from US20180271925A1, “Method For Improving Gingivitis And Periodontitis By Antibacterial, Antioxidant And Anti-Inflammatory Effects And Inhibition Of Alveolar Bone Loss Of Complex Extracts Of Moringa Leaf And Eucommia Bark” (HLSCIENCE CO., LTD., priority 2017, published 2018).
